In brackets after ≈: the same amount, converted by molar mass. Where a name gives a salt, the structure may show the parent alone.
Key:
[1] = system: Salmonella enterica serovar Typhimurium SL1344
[2] = system: Salmonella enterica serovar Typhimurium SL1344; assay: intracellular MIC (10-fold luminescence reduction); higher = less potent; conditions: RAW264.7 macrophages
RAW264.7 = assay: cytotoxicity (LDH release relative to maximum lysis); higher = more toxic; conditions: 50 µM; 2 h

Compound | MIC ([1]; LPM pH 5.8) [µM] | MIC ([1]; MHB) [µM] | MIC ([1]; MOPS glucose minimal medium) [µM] | intracellular MIC [2] [µM] | cytotoxicity (RAW264.7) [%]
COc1c(N2C[C@@H]3CCCN[C@@H]3C2)c(F)cc2c(=O)c(C(=O)O)cn(C3CC3)c12 [MOXIFLOXACIN HYDROCHLORIDE] | > 50 | > 50 | > 50 | > 50 | 24.3
CCCCC(CC)CN1CN(CC(CC)CCCC)CC(C)(N)C1 (stereo not given) [HEXETIDINE] | 25 (≈ 8.49 µg/mL) | > 50 | > 50 | > 50 | 49.5
Cc1ccc(Cl)c(Nc2ccccc2C(=O)O)c1Cl [MECLOFENAMATE SODIUM] | > 50 | > 50 | > 50 | > 50 | 7.81
CCn1cc(C(=O)O)c(=O)c2cc(F)c(N3CCNC(C)C3)c(F)c21 (stereo not given) [LOMEFLOXACIN HYDROCHLORIDE] | 1.56 | ≤ 0.78 | ≤ 0.78 | ≤ 0.78 | 15.9
CCCCCCCCCCCCCCCC[n+]1ccccc1 [CETYLPYRIDINIUM CHLORIDE] | 12.5 | 50 | 12.5 | ≤ 0.78 | 63
CC(=O)[C@H]1CC[C@H]2[C@@H]3C[C@H](C)C4=CC(=O)CC[C@]4(C)[C@H]3[C@@H](O)C[C@]12C [MEDRYSONE] | > 50 | > 50 | > 50 | > 50 | 7.6
COC(=O)N/N=C/c1c[n+]([O-])c2ccccc2[n+]1[O-] [CARBADOX] | 25 (≈ 6.56 µg/mL) | > 50 | 50 (≈ 13.1 µg/mL) | ≤ 0.78 | 15.6
CO[C@@H]1[C@@H](OC(N)=O)[C@@H](O)[C@H](Oc2ccc3c(O)c(NC(=O)c4ccc(O)c(CC=C(C)C)c4)c(=O)oc3c2C)OC1(C)C [NOVOBIOCIN SODIUM] | 1.17 | > 50 | > 50 | > 50 | 7.98
O=C(N[C@H](CO)[C@H](O)c1ccc([N+](=O)[O-])cc1)C(Cl)Cl [CHLORAMPHENICOL] | ≤ 0.78 | 12.5 (≈ 4.04 µg/mL) | 3.13 (≈ 1.01 µg/mL) | ≤ 0.78 | 8.21
C[C@H]1COc2c(N3CCN(C)CC3)c(F)cc3c(=O)c(C(=O)O)cn1c23 [LEVOFLOXACIN] | ≤ 0.78 | ≤ 0.78 | ≤ 0.78 | ≤ 0.78 | 21
CO/N=C(\C(=O)N[C@@H]1C(=O)N2C(C(=O)O)=C(CSc3nnnn3C)CS[C@H]12)c1csc(N)n1 [CEFMENOXIME HYDROCHLORIDE] | 1.17 | ≤ 0.78 | ≤ 0.78 | 1.56 | 8.15
CCOC(=O)C1=C(COCCN)NC(C)=C(C(=O)OC)C1c1ccccc1Cl (stereo not given) [AMLODIPINE BESYLATE] | ≤ 0.78 | ≤ 0.78 | ≤ 0.78 | > 50 | 22.5
CCN(CC)C(C)CN1c2ccccc2Sc2ccccc21 (stereo not given) [ETHOPROPAZINE HYDROCHLORIDE] | > 50 | > 50 | > 50 | ≤ 0.78 | 11.8
NCc1ccc(S(N)(=O)=O)cc1 [MAFENIDE HYDROCHLORIDE] | > 50 | > 50 | > 50 | 1.56 | 7.52
CCCCc1nc(Cl)c(CO)n1Cc1ccc(-c2ccccc2-c2nnn[nH]2)cc1 [LOSARTAN] | > 50 | > 50 | > 50 | > 50 | 5.92
Cc1ccc(Nc2c(F)cccc2Cl)c(CC(=O)O)c1 [LUMIRACOXIB] | > 50 | > 50 | > 50 | ≤ 0.78 | 7.05
CCn1cc(C(=O)O)c(=O)c2cc3c(cc21)OCO3 [OXOLINIC ACID] | 1.56 (≈ 0.408 µg/mL) | 3.13 (≈ 0.818 µg/mL) | ≤ 0.78 | 1.56 | 6.86
N[C@@H](Cc1cc(I)c(Oc2ccc(O)c(I)c2)c(I)c1)C(=O)O [LIOTHYRONINE] | > 50 | > 50 | > 50 | > 50 | 6.23
CO/N=C(\C(=O)N[C@@H]1C(=O)N2C(C(=O)O)=C(CSC(=O)c3ccco3)CS[C@H]12)c1csc(N)n1 [CEFTIOFUR HYDROCHLORIDE] | ≤ 0.78 | ≤ 0.78 | ≤ 0.78 | ≤ 0.78 | 15.6
C[C@H]1C[C@@H]2[C@H]([C@@H](O)C[C@@]3(C)[C@H]2CC[C@]3(O)C(=O)CO)[C@@]2(C)C=CC(=O)C=C12 [METHYLPREDNISOLONE] | > 50 | > 50 | > 50 | > 50 | 8.21
CC1CCc2cc(F)cc3c(=O)c(C(=O)O)cn1c23 (stereo not given) [FLUMEQUINE] | ≤ 0.78 | 6.25 (≈ 1.63 µg/mL) | 1.56 (≈ 0.408 µg/mL) | > 50 | 20.1
C[C@H]1O[C@@H](n2cc(F)c(=O)[nH]c2=O)[C@H](O)[C@@H]1O [DOXIFLURIDINE] | ≤ 0.78 | > 50 | 1.56 (≈ 0.384 µg/mL) | 6.25 | 13
CC(C)NC(=N)NC(=N)Nc1ccc(Cl)cc1 [CHLOROGUANIDE HYDROCHLORIDE] | > 50 | > 50 | > 50 | > 50 | 6.72
CN(C)C(=O)Oc1ccc[n+](C)c1 [PYRIDOSTIGMINE BROMIDE] | > 50 | > 50 | > 50 | > 50 | 6.09
CCn1cc(C(=O)O)c(=O)c2cc(F)c(N3CCNCC3)nc21 [ENOXACIN] | 6.25 (≈ 2 µg/mL) | ≤ 0.78 | ≤ 0.78 | 3.13 | 20.8
CCOc1ccc(Cc2nccc3cc(OCC)c(OCC)cc23)cc1OCC [ETHAVERINE HYDROCHLORIDE] | > 50 | > 50 | > 50 | > 50 | 12.8

The next lines start with results.

MIC ([1]; LPM pH 5.8) [µM] | MIC ([1]; MHB) [µM] | MIC ([1]; MOPS glucose minimal medium) [µM] | intracellular MIC [2] [µM] | Compound | cytotoxicity (RAW264.7) [%]
≤ 0.78 | ≤ 0.78 | ≤ 0.78 | 1.56 | CC1COc2c(N3CCN(C)CC3)c(F)cc3c(=O)c(C(=O)O)cn1c23 (stereo not given) [OFLOXACIN] | 6.6
≤ 0.78 | ≤ 0.78 | ≤ 0.78 | ≤ 0.78 | Cc1oc(=O)oc1CN1CCN(c2cc3c(cc2F)c(=O)c(C(=O)O)c2n3C(C)S2)CC1 (stereo not given) [PRULIFLOXACIN] | 13.2
≤ 0.78 | 12.5 | 3.13 | 1.56 | CN(C)[C@@H]1C(O)=C(C(N)=O)C(=O)[C@@]2(O)C(O)=C3C(=O)c4c(O)cccc4[C@@](C)(O)[C@H]3C[C@@H]12 [TETRACYCLINE HYDROCHLORIDE] | 7.01
≤ 0.78 | ≤ 0.78 | ≤ 0.78 | 1.56 | CCn1cc(C(=O)O)c(=O)c2cc(F)c(N3CCN(C)CC3)cc21 [PEFLOXACINE MESYLATE] | 20.7
3.13 | 12.5 | 6.25 | 3.13 | CCN1CCN(C(=O)N[C@@H](C(=O)N[C@@H]2C(=O)N3[C@@H]2SC(C)(C)[C@@H]3C(=O)O)c2ccccc2)C(=O)C1=O [PIPERACILLIN SODIUM] | 7.66
> 50 | > 50 | > 50 | 25 | C[n+]1cc2c3c(ccc2c2ccc4cc5c(cc4c21)OCO5)OCO3 [SANGUINARINE SULFATE] | 34.2
3.13 (≈ 0.909 µg/mL) | ≤ 0.78 | ≤ 0.78 | ≤ 0.78 | COc1cc(Cc2cnc(N)nc2N)cc(OC)c1OC [TRIMETHOPRIM] | 19.9
≤ 0.78 | ≤ 0.78 | ≤ 0.78 | ≤ 0.78 | Cc1cc(CC(C)CC(C)(C)C)n(O)c(=O)c1 (stereo not given) [PIROCTONE OLAMINE] | 20.8
> 50 | > 50 | > 50 | ≤ 0.78 | CC[C@@H]1C(=O)OC[C@@H]1Cc1cncn1C [PILOCARPINE NITRATE] | 7.24
≤ 0.78 | ≤ 0.78 | ≤ 0.78 | ≤ 0.78 | C[C@H]1COc2c(C3(N)CC3)c(F)cc3c(=O)c(C(=O)O)cn1c23 [PAZUFLOXACIN MESYLATE] | 12.2
> 50 | > 50 | > 50 | ≤ 0.78 | CNC[C@H](O)c1cccc(O)c1 [PHENYLEPHRINE HYDROCHLORIDE] | 6.89
50 (≈ 16.9 µg/mL) | > 50 | > 50 | 1.56 | CCCCCCCCNC(C)C(O)c1ccc(SC(C)C)cc1 (stereo not given) [SULOCTIDIL] | 33.3
> 50 | > 50 | > 50 | > 50 | CCCCC(=O)N(Cc1ccc(-c2ccccc2-c2nnn[nH]2)cc1)[C@H](C(=O)O)C(C)C [VALSARTAN] | 6.04

Source: the supplement of paper PMC6331611
